Assay results published in patent US20100034749A1, “Use of a Cationic Collodal Preparation for the Diagnosis and Treatment of Ocular Diseases” (MediGene AG, priority 2006, published 2010).

System: laser induced CNV model in mice
Assay: SLO imaging after i.v. application in laser induced CNV mouse model
Format: in vivo, C57/BI6 mice
Procedure: For animal experiments, the laser induced CNV model in mice was used as described by Tobe et al. (1998). In brief, C57/BI6 mice (8-12 weeks old) were anesthetized, pupils were dilated and 4-6 burns of 100 μm diameter were produced with a laser (100 mW, 100 μs). In 80-90% of the laser burns, CNV develops within about 14 days.
As read-out, Scanning Laser Opthalmoscopy (SLO), flat mount and histology are performed. 100 μl of the respective formulation was applied intravenously, immediately followed by SLO over a time course of about 120 min. Three different EndoTAG formulations are selected:
EndoTAG-A: DOTAP/DOPC/OG-DHPE=60/35/5 mol %, 10 mM total liposomal components in 10% trehalose (produced as described in Example 1). EndoTAG-B: DOTAP/DOPC/OG-DOPE=[…] mol %, 10 mM total liposomal components in 10% trehalose EndoTAG-C: DOTAP/DOPC/OG-DOPE/PEG-DOPE=60/30/5/5 mol %, 10 mM total liposomal components in 10% trehalose
As control, neutral liposomes (DOPC/OG-DOPE=95/5 mol %, 10 mM total lipid, in trehalose) is applied as well as an aqueous solution of Oregon Green (0.5 mM). Additional animals are used to carry out flat mounts and histology by sacrificing animals at the respective peak intensity as observed in SLO.

**Q.** Which results are given for Oregon Green [free dye]?
**A.** Accumulation at lesion site / neovascular sites (SLO after i.v. application): did not show an accumulation; Staining of the vasculature / neovasculature (after 60 min, equivalent concentrations): no increased staining of the vasculature
